Here are results for 67 molecules from the PolyMetriX glass transition set.

Molecule `*=NP(=NP(=NC(=*)Oc1ccc(C(=O)OC)cc1)(Oc1ccc(C(=O)OC)cc1)Oc1ccc(C(=O)OC)cc1)(Oc1ccc(C(=O)OC)cc1)Oc1ccc(C(=O)OC)cc1` (repeat unit) displayed a glass transition temperature of 52.00 °C.

`*=NP(=NP(=NC(=*)Oc1ccc(C(C)(C)C)cc1)(Oc1ccc(C(C)(C)C)cc1)Oc1ccc(C(C)(C)C)cc1)(Oc1ccc(C(C)(C)C)cc1)Oc1ccc(C(C)(C)C)cc1` (repeat unit) came in with a glass transition temperature of 74.00 °C.

Molecule `*=NP(=NP(=NC(=*)Oc1ccc(C(C)(C)c2ccccc2)cc1)(Oc1ccc(C(C)(C)c2ccccc2)cc1)Oc1ccc(C(C)(C)c2ccccc2)cc1)(Oc1ccc(C(C)(C)c2ccccc2)cc1)Oc1ccc(C(C)(C)c2ccccc2)cc1` (repeat unit) came in with a glass transition temperature of 55.00 °C.

Take `*=NP(=NP(=NC(=*)Oc1ccccc1)(Oc1ccccc1)Oc1ccccc1)(Oc1ccccc1)Oc1ccccc1` (repeat unit): the glass transition temperature amounted to 18.00 °C.

Turning to `*=NP(=NP(=NC(=*)Oc1ccccc1C(F)(F)F)(Oc1ccccc1C(F)(F)F)Oc1ccccc1C(F)(F)F)(Oc1ccccc1C(F)(F)F)Oc1ccccc1C(F)(F)F` (repeat unit), the glass transition temperature is -20.00 °C.

As for `*CC(*)(C#N)C(=O)OC(C)C` (repeat unit), the glass transition temperature worked out at 66.00 °C.

Take `*CC(*)(C#N)C(=O)OCC` (repeat unit): the glass transition temperature is 115.00 °C.

For the molecule `*CC(*)(C#N)C(=O)OCC(C)C` (repeat unit), the glass transition temperature amounted to 51.00 °C.

Regarding `*CC(*)(C)C(=O)NC(=O)OC(C)COc1c(Br)cc(S(=O)(=O)c2cc(Br)c(OCC(C)O)c(Br)c2)cc1Br` (repeat unit), the glass transition temperature came out at 45.00 °C.

On to `*CC(*)(C)C(=O)NC(=O)OCCOc1c(Br)cc(S(=O)(=O)c2cc(Br)c(OCCO)c(Br)c2)cc1Br` (repeat unit), for which the glass transition temperature stood at 110.00 °C.

Molecule `*CC(*)(C)C(=O)NC(=O)OCCOc1ccc(S(=O)(=O)c2ccc(OCCO)cc2)cc1` (repeat unit) registered a glass transition temperature of 131.00 °C.

As for `*CC(*)(C)C(=O)NC(=O)Oc1c(Br)cc(S(=O)(=O)c2cc(Br)c(O)c(Br)c2)cc1Br` (repeat unit), the glass transition temperature came to 116.00 °C.

Consider `*CC(*)(C)C(=O)Nc1ccc(C(=O)/C=C/c2ccc(OC)cc2)cc1` (repeat unit), for which the glass transition temperature is 35.00 °C.

For `*CC(*)(C)C(=O)OC(COc1cccc2ccccc12)COc1cccc2ccccc12` (repeat unit), the glass transition temperature was 80.00 °C.

`*CC(*)(C)C(=O)OC(F)(F)C(F)(F)C(F)(F)C(F)(F)C(F)(F)C(F)(F)C(F)(F)C(F)(F)F` (repeat unit): the glass transition temperature was 49.00 °C.

`*CC(*)(C)C(=O)OC1(C)C2CC3CC(C2)CC1C3` (repeat unit) showed a glass transition temperature of 165.00 °C.

`*CC(*)(C)C(=O)OC1(C)CCOC(=O)C1` (repeat unit) displayed a glass transition temperature of 110.00 °C.

In turn, `*CC(*)(C)C(=O)OC1CC(C)CCC1C(C)C` (repeat unit) came in with a glass transition temperature of 147.00 °C.

`*CC(*)(C)C(=O)OC1CC2CC1C1C3CCC(C3)C21` (repeat unit): the glass transition temperature was 199.00 °C.

Turning to `*CC(*)(C)C(=O)OC1CCC(C)CC1` (repeat unit), the glass transition temperature was 109.00 °C.

`*CC(*)(C)C(=O)OC1CCC1` (repeat unit) showed a glass transition temperature of 119.00 °C.

`*CC(*)(C)C(=O)OC1CCCC1` (repeat unit) displayed a glass transition temperature of 75.00 °C.

In turn, `*CC(*)(C)C(=O)OC1CCCCC1C` (repeat unit) gave a glass transition temperature of 85.00 °C.

`*CC(*)(C)C(=O)OC1COC(CP(=O)(OCC)OCC)OC1` (repeat unit) gave a glass transition temperature of 101.50 °C.

`*CC(*)(C)C(=O)OCC#CO[Si](C)(C)C` (repeat unit) gave a glass transition temperature of 57.00 °C.

As to `*CC(*)(C)C(=O)OCC#N` (repeat unit), the glass transition temperature was 91.00 °C.

As for `*CC(*)(C)C(=O)OCC(=O)N1CCCC1` (repeat unit), the glass transition temperature turned out to be 144.00 °C.

In turn, `*CC(*)(C)C(=O)OCC(=O)c1ccccc1` (repeat unit) registered a glass transition temperature of 92.50 °C.

As to `*CC(*)(C)C(=O)OCC(F)(F)C(F)(F)C(F)(F)C(F)(F)C(F)(F)C(F)F` (repeat unit), the glass transition temperature worked out at 12.50 °C.

`*CC(*)(C)C(=O)OCC(F)(F)C(F)(F)C(F)(F)C(F)F` (repeat unit) had a glass transition temperature of 47.00 °C.

Turning to `*CC(*)(C)C(=O)OCC(F)(F)C(F)(F)F` (repeat unit), the glass transition temperature was 77.00 °C.

As to `*CC(*)(C)C(=O)OCC(O)C1CC(C)(c2ccccc2)C1` (repeat unit), the glass transition temperature is 105.00 °C.

As for `*CC(*)(C)C(=O)OCC(O)CO` (repeat unit), the glass transition temperature amounted to 84.40 °C.

In turn, `*CC(*)(C)C(=O)OCC1(C)COC(C)(C)OC1` (repeat unit) had a glass transition temperature of 108.00 °C.

The molecule `*CC(*)(C)C(=O)OCC1CC(NC(=O)OC(C)(C)C)CN1C(=O)OC(C)(C)C` (repeat unit) came in with a glass transition temperature of 127.00 °C.

Molecule `*CC(*)(C)C(=O)OCC1CCCO1` (repeat unit) yielded a glass transition temperature of 105.00 °C.

As to `*CC(*)(C)C(=O)OCC1COC(c2ccccc2)O1` (repeat unit), the glass transition temperature was 130.00 °C.

In turn, `*CC(*)(C)C(=O)OCC1COCCOCCOCCOCCOC1` (repeat unit) had a glass transition temperature of 31.00 °C.

In the case of `*CC(*)(C)C(=O)OCCC(F)(F)C(F)(F)C(F)(F)C(F)(F)C(F)(F)C(F)(F)C(F)(F)C(F)(F)F` (repeat unit), the glass transition temperature was determined as 47.00 °C.

For the molecule `*CC(*)(C)C(=O)OCCC1CCN(CCCCCCOc2ccc(/N=N/c3ccc([N+](=O)[O-])cc3)cc2)CC1` (repeat unit), the glass transition temperature was 27.00 °C.

`*CC(*)(C)C(=O)OCCCC1CCCCC1` (repeat unit) registered a glass transition temperature of 60.00 °C.

`*CC(*)(C)C(=O)OCCCCC(F)(F)C(F)(F)C(F)(F)C(F)(F)C(F)(F)C(F)(F)F` (repeat unit) showed a glass transition temperature of 23.00 °C.

`*CC(*)(C)C(=O)OCCCCC1CCCCC1` (repeat unit) gave a glass transition temperature of 43.00 °C.

As to `*CC(*)(C)C(=O)OCCCCCC(=O)Oc1ccc(OC(=O)c2ccc(OC)cc2)cc1` (repeat unit), the glass transition temperature is 40.00 °C.

As to `*CC(*)(C)C(=O)OCCCCCC(=O)Oc1ccc(OC(=O)c2ccc(OCCCC)cc2)cc1` (repeat unit), the glass transition temperature is 40.00 °C.

Molecule `*CC(*)(C)C(=O)OCCCCCCC(F)(F)C(F)(F)C(F)(F)C(F)(F)F` (repeat unit) gave a glass transition temperature of 23.00 °C.

`*CC(*)(C)C(=O)OCCCCCCCC` (repeat unit) had a glass transition temperature of -11.00 °C.

The molecule `*CC(*)(C)C(=O)OCCCCCCCCCCCC` (repeat unit) yielded a glass transition temperature of -47.90 °C.

As to `*CC(*)(C)C(=O)OCCCCCCCCCCCOc1ccc(/C=N/c2ccc(C#N)cc2)cc1` (repeat unit), the glass transition temperature stood at 23.00 °C.

In the case of `*CC(*)(C)C(=O)OCCCCCCCCCCCn1c2ccccc2c2ccccc21` (repeat unit), the glass transition temperature stood at 31.00 °C.

Molecule `*CC(*)(C)C(=O)OCCCCCCCCCCOc1ccc(/N=N/c2ccc(C#N)cc2)cc1` (repeat unit) came in with a glass transition temperature of 51.00 °C.

Molecule `*CC(*)(C)C(=O)OCCCCCCCCCCOc1ccc(C#Cc2cc(C)c(/C=C/c3ccncc3)cc2C)cc1` (repeat unit) displayed a glass transition temperature of 65.40 °C.

`*CC(*)(C)C(=O)OCCCCCCCCCCOc1ccc(OC(=O)c2ccc(OC)cc2)cc1` (repeat unit): the glass transition temperature amounted to 21.00 °C.

The molecule `*CC(*)(C)C(=O)OCCCCCCCCCCOc1ccc(OC(=O)c2ccc(OCCCCCC)cc2)cc1` (repeat unit) registered a glass transition temperature of 41.00 °C.

For `*CC(*)(C)C(=O)OCCCCCCCCCCOc1ccc(OC(=O)c2ccc(OCCCCCCCC)cc2)cc1` (repeat unit), the glass transition temperature turned out to be 12.00 °C.

With `*CC(*)(C)C(=O)OCCCCCCCCCCOc1ccc2cc(C(=O)Oc3ccccc3)ccc2c1` (repeat unit), the glass transition temperature amounted to 24.00 °C.

`*CC(*)(C)C(=O)OCCCCCCCCCCn1c2ccccc2c2cc(/C=C(\C#N)c3ccc([N+](=O)[O-])cc3)ccc21` (repeat unit): the glass transition temperature was found to be 40.00 °C.

Turning to `*CC(*)(C)C(=O)OCCCCCCCCCCn1c2ccccc2c2cc(/C=C/C3=C(C#N)C(=C(C#N)C#N)OC3(C)C)ccc21` (repeat unit), the glass transition temperature was determined as 55.00 °C.

In turn, `*CC(*)(C)C(=O)OCCCCCCCCCCn1c2ccccc2c2cc(/N=N/c3ccc([N+](=O)[O-])cc3)ccc21` (repeat unit) displayed a glass transition temperature of 36.00 °C.

The molecule `*CC(*)(C)C(=O)OCCCCCCCCCCn1c2ccccc2c2cc(/N=N/c3ccc([N+](=O)[O-])cc3[N+](=O)[O-])ccc21` (repeat unit) displayed a glass transition temperature of 60.00 °C.

As to `*CC(*)(C)C(=O)OCCCCCCCCCOc1ccc2cc(C(=O)Oc3ccccc3)ccc2c1` (repeat unit), the glass transition temperature was found to be 18.00 °C.

Regarding `*CC(*)(C)C(=O)OCCCCCCCCOc1ccc(/N=N/c2ccc(C#N)cc2)cc1` (repeat unit), the glass transition temperature turned out to be 35.00 °C.

Turning to `*CC(O)CN(C)S(=O)(=O)c1ccc(-c2ccc(S(=O)(=O)N(C)CC(O)COc3ccc(C(C)(C)c4ccc(O*)cc4)cc3)cc2)cc1` (repeat unit), the glass transition temperature amounted to 101.00 °C.

In turn, `*CC(O)CN(C)S(=O)(=O)c1ccc(-c2ccc(S(=O)(=O)N(C)CC(O)COc3ccc(O*)cc3)cc2)cc1` (repeat unit) returned a glass transition temperature of 84.00 °C.

`*CC(O)CN(C)S(=O)(=O)c1cccc(S(=O)(=O)N(C)CC(O)COc2ccc(O*)cc2)c1` (repeat unit) yielded a glass transition temperature of 66.00 °C.

`*CC(O*)c1ccccc1` (repeat unit) returned a glass transition temperature of 34.00 °C.

For `*CC(OC)C(C)(C(=O)OC)C(*)(C)C(=O)OC` (repeat unit), the glass transition temperature was determined as 134.00 °C.
